Test results published in ChEMBL document CHEMBL3745697, “Identification of azabenzimidazoles as potent JAK1 selective inhibitors” (Bioorg Med Chem Lett, 2016).

Key:
[1] = biological target: T1, Tyrosine-protein kinase JAK1 (Homo sapiens, UniProt P23458); experiment: Inhibition of N-terminal GST-fused human recombinant JAK1 (866 to 1154 residues) expressed in insect cells using FITC-C6-KKHTDDGYMPMSPGVA-NH2 as substrate by microfluidic capillary electrophoresis method
Homo sapiens = species on record: Homo sapiens; experiment: Selectivity ratio of IC50 for N-terminal GST-fused recombinant JAK2 (831 to 1132 residues) (unknown origin) to N-terminal GST-fused human recombinant JAK1 (866 to 1154 residues)
[2] = biological target: T2, Tyrosine-protein kinase JAK3 (Homo sapiens, UniProt P52333); experiment: Inhibition of N-terminal GST-fused recombinant JAK3 (781 to 1124 residues) (unknown origin) expressed in insect cells using 5FAM-GEEPLYWSFPAKKK-NH2 as substrate by microfluidic capillary electrophoresis method
T2 sequence (P52333 whole entry): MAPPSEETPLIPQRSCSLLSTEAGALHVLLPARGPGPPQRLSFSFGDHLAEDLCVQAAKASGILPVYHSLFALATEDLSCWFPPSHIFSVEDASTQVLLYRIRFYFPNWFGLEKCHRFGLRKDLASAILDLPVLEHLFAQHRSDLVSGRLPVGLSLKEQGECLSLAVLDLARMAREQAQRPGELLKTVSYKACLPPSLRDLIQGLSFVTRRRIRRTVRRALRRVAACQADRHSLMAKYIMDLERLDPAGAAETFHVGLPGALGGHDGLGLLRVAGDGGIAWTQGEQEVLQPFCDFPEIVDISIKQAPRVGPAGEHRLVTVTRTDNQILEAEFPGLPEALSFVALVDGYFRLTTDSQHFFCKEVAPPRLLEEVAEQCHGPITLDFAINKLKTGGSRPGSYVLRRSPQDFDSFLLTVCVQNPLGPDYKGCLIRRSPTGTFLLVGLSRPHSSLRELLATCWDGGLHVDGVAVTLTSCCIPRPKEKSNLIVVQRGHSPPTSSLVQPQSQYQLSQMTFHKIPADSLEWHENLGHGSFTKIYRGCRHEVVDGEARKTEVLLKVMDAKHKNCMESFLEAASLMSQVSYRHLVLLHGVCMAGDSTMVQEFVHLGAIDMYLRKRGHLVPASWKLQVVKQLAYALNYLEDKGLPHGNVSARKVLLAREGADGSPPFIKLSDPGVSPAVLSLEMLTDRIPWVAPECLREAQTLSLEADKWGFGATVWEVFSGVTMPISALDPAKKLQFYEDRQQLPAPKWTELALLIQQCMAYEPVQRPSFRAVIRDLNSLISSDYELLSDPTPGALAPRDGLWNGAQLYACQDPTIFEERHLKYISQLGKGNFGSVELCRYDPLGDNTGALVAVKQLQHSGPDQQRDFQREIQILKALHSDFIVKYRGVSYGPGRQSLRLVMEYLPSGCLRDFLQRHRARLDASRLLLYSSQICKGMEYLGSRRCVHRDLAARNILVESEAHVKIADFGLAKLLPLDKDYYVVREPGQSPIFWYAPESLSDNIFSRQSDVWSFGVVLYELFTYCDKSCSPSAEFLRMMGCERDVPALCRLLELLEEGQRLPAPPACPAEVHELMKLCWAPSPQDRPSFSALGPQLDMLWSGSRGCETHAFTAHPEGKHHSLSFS

[3] = biological target: Tyrosine-protein kinase JAK2 (Homo sapiens, UniProt O60674); experiment: Inhibition of N-terminal GST-fused recombinant JAK2 (831 to 1132 residues) (unknown origin) expressed in insect cells using 5FAM-GEEPLYWSFPAKKK-NH2 as substrate by microfluidic capillary electrophoresis method
Tyrosine-protein kinase JAK2, sequence (O60674 whole entry, the tested form may be a part): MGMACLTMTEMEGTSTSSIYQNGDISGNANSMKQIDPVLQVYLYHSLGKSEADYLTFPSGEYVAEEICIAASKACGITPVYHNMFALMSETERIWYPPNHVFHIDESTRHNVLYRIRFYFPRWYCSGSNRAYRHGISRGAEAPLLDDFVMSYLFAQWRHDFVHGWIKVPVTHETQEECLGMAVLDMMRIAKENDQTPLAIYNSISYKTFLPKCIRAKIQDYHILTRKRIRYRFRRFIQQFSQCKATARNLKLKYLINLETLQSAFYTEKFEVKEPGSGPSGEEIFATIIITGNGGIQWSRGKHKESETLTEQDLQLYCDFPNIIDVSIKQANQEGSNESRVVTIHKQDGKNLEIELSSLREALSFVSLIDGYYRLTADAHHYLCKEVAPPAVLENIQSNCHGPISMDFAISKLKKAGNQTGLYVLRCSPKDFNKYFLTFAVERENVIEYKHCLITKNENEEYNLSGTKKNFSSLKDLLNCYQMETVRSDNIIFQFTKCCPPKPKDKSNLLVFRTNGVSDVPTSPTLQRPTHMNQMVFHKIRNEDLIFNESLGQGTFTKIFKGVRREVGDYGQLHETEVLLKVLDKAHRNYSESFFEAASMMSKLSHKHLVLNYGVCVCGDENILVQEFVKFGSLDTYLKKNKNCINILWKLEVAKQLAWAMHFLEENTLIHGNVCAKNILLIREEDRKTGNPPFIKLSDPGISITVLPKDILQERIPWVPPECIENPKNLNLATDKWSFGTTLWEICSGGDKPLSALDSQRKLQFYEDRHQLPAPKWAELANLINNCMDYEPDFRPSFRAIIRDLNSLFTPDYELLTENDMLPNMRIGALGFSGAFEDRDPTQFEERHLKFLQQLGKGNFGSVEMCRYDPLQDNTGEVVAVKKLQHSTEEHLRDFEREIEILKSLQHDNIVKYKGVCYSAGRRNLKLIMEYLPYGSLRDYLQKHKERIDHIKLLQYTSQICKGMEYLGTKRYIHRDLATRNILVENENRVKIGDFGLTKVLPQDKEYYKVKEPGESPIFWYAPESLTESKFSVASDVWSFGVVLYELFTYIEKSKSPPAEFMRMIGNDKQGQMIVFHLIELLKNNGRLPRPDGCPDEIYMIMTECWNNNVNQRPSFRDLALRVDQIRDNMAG

[4] = biological target: T1, Tyrosine-protein kinase JAK1; experiment: Inhibition of JAK1 in human NCI-H1975 cells assessed as reduction in STAT3 phosphorylation after 2 hrs; type: cell-based

T1 sequence (P23458 whole entry, the tested form may be a part): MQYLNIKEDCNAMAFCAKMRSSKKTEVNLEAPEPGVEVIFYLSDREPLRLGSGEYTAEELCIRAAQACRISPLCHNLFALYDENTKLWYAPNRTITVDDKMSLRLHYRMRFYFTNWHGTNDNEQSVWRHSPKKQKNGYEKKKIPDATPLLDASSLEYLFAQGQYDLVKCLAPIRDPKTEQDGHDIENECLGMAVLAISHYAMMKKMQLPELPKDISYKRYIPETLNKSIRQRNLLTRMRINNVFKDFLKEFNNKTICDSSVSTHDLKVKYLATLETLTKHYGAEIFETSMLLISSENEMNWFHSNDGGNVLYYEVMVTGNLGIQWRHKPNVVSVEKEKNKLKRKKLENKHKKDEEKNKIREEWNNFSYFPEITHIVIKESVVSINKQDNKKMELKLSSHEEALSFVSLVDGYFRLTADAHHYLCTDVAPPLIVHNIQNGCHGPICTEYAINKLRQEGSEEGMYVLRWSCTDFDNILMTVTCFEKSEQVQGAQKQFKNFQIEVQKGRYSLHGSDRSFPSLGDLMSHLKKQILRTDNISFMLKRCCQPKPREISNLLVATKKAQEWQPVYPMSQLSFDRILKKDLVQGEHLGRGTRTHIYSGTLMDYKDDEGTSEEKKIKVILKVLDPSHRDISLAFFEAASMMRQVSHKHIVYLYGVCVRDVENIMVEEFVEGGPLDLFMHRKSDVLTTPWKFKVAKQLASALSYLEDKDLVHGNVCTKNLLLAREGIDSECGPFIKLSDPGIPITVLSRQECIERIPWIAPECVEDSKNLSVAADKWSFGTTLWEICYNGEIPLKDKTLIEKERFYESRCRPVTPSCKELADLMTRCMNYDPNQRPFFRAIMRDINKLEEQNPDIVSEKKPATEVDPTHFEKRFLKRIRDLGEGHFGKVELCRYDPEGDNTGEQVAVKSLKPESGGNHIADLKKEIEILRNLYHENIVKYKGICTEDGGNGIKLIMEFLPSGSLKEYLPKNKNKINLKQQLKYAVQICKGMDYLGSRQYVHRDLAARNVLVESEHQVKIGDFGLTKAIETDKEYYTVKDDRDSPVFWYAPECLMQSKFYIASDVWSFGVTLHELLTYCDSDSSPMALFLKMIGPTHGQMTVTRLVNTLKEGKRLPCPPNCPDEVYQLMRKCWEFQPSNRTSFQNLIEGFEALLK

Row | Compound | IC50 [1] [µM] | Ratio IC50 (Homo sapiens) | IC50 [2] [µM] | IC50 [3] [µM] | IC50 [4] [µM]
1 | COc1ccc(-c2nc3c(NC4CCN(C)CC4)c(Cl)cnc3[nH]2)cc1 | 0.561 | 27 | 16.9 | 14.9 | 
2 | COc1ccc(-c2nc3c(NCC4CCN(C)CC4)c(Cl)cnc3[nH]2)cc1 | 0.317 | 30 | > 30 | 9.62 | 
3 | COc1cccc(-c2nc3c(NCC4CCN(C)CC4)c(Cl)cnc3[nH]2)c1 | 0.274 | 59 | > 30 | 16.2 | 
4 | CN1CCC(CNc2c(Cl)cnc3[nH]c(-c4cccc(F)c4)nc23)CC1 | 0.832 | 19 | > 30 | 16.2 | 
5 | COc1ccc(-c2nc3c(OCC4CCNCC4)c(Cl)cnc3[nH]2)cc1 | 0.177 | 57 | 2.78 | 10.1 | 
6 | COc1ccc(F)c(-c2nc3c(NCC4CCN(C)CC4)c(Cl)cnc3[nH]2)c1 | 0.275 | > 109 | > 30 | > 30 | 
7 | COc1ccc(-c2nc3c(NCC4CCCNC4)c(Cl)cnc3[nH]2)cc1 (configuration not stated) | 0.138 | 22 | 5.75 | 3.04 | 
8 | COc1ccc(-c2nc3c(NCC4CCN(C)CC4)c(C#N)cnc3[nH]2)cc1 | 4.51 | > 6 | > 30 | > 30 | 
9 | COc1ccc(-c2nc3c(NCC4CCNCC4)ccnc3[nH]2)cc1 | > 30 |  | > 30 | > 30 | 
10 | CN1CCC(CNc2c(Cl)cnc3[nH]c(-c4ccc(S(C)(=O)=O)cc4)nc23)CC1 | 0.356 | 8 | 27.6 | 2.78 | 

The next lines start with the values.

Row | IC50 [1] [µM] | Ratio IC50 (Homo sapiens) | IC50 [2] [µM] | IC50 [3] [µM] | IC50 [4] [µM] | Compound
11 | 0.106 | 110 | 6.9 | 11.8 | 0.034 | COc1ccc(-c2nc3c(NCC4CCNCC4)c(Cl)cnc3[nH]2)c(F)c1
12 | 0.872 | > 34 | > 30 | > 30 |  | COc1ccc(-c2nc3c(N(C)CC4CCNCC4)c(Cl)cnc3[nH]2)cc1
13 | > 30 |  | > 30 | > 30 |  | COc1ccc(-c2nc3c(NC4CCN(C(C)=O)CC4)c(Cl)cnc3[nH]2)cc1
14 | 0.977 | 10 | 4.5 | 10.3 |  | COc1ccc(-c2nc3c(NCC4CCN(C)CC4)c(C(N)=O)cnc3[nH]2)cc1
15 | 0.073 | 137 | > 30 | 9.9 |  | COc1ccc(-c2nc3c(NCC4CCN(C)CC4)c(Cl)cnc3[nH]2)cc1OC
16 | 12.2 | 2 | > 30 | > 30 |  | COc1ccccc1-c1nc2c(NCC3CCN(C)CC3)c(Cl)cnc2[nH]1
17 | 0.177 |  | 19.2 |  |  | COc1ccc(-c2nc3c(NCC4CCN(C)CC4)c(Br)cnc3[nH]2)cc1
18 | 0.801 | > 28 | > 30 | > 22 |  | COCCN1CCC(CNc2c(Cl)cnc3[nH]c(-c4ccc(OC)cc4)nc23)CC1
19 | 5.23 | 2 | > 30 | > 30 |  | COc1ccc(-c2nc3c(NCCO)c(Cl)cnc3[nH]2)cc1
20 | 2.1 | > 14 | > 30 | > 30 |  | COCCNc1c(Cl)cnc2[nH]c(-c3ccc(OC)cc3)nc12
21 | 0.199 | 70 | > 22 | 13.9 |  | COc1ccc(-c2nc3c(NCC4CCNC4)c(Cl)cnc3[nH]2)cc1 (configuration not stated)
22 | > 30 |  | > 30 | > 30 |  | CNc1c(Cl)cnc2[nH]c(-c3ccc(OC)cc3)nc12
23 | 0.036 | 75 | 6.6 | 2.7 |  | COc1ccc(-c2nc3c(NCC4CCN(C)CC4)c(Cl)cnc3[nH]2)c(C)c1
24 | 4.91 | > 6 | > 30 | > 30 |  | CN1CCC(CNc2c(Cl)cnc3[nH]c(-c4cccc(S(C)(=O)=O)c4)nc23)CC1
